# According to US12065416B2, “cGAS antagonist compounds” (IMMUNESENSOR THERAPEUTICS, INC., priority 2016, dated 2024):
# Biological target: T1, recombinant cGAS (aa147-522) (Homo sapiens, UniProt Q8N884)
# T1 construct: recombinant cGAS (aa147-522); His6-SUMO (N, cleaved yes); made in house; host or cells: E. coli BL21/pLys
# Assay: In vitro assay for inhibition of cGAS activity (ATP consumption, Kinase Glo)
# Format: biochemical
# Settings: 37° C. 20 minutes, read-out: Activity (Inhibition of cGAS enzyme activity in vitro, IC50)
# Description: cDNA encoding full-length or amino acids 147-520 of human cGAS is inserted into a modified pET28a vector containing an in-frame His6-SUMO tag. The E. coli strain BL21/pLys harboring the plasmid is induced with 0.5 mM IPTG at 18° C. overnight. His6-SUMO tag was removed by a SUMO proease following purification of the HiS-SUMO-cGAS as described previously (Sun et al, 2013, Science 339, 786).
# A40 μL mixture containing 1.5 ng/μL of recombinant cGAS (aa147-522) and serial dilutions of a test compound or DMSO was added to a 96-well plate and incubated at 37° C. for 20 minutes. At the end of reaction, 20 μL of Kinase Glo (Promega) was added and chemiluminescence measured with a luminometer. Inhibitory effect of a compound is evaluated by plotting percentage of ATP consumption against logarithm of compound concentrations. IC50 value was calculated using Graphpad (Sigma).
# T1 sequence (Q8N884 147-522): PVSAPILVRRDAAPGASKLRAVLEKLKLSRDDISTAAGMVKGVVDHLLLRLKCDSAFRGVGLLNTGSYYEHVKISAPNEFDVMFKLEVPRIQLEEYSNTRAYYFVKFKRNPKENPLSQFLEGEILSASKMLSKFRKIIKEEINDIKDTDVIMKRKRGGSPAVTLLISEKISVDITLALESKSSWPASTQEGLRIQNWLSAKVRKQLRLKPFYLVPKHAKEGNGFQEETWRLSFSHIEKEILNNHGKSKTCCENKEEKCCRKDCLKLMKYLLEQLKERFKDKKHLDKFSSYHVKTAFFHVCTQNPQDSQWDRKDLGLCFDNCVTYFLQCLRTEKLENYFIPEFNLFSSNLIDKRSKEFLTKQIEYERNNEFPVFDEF
row,Structure (SMILES),IC50 [µM]
1,CN1C(=O)S/C(=C\c2cc(OCc3cncc(NC(=O)c4ccncc4)c3)c(O)cc2Br)C1=O [Ex225],≥ 10
2,CN1C(=O)S/C(=C\c2cc(Oc3cccc(O)c3N)c(O)cc2Br)C1=O [ExB12],≥ 10
3,COc1cc(/C=C2\SC(=O)N(C)C2=O)c(Br)cc1NS(=O)(=O)c1ccc(C)cc1 [Ex24],≥ 10
4,CN1C(=O)S/C(=C\c2cc3nn[nH]c3cc2Br)C1=O [Ex36],≥ 10
5,CN1C(=O)S/C(=C\c2cc(Oc3ccc(-c4cccnc4)cc3)c(O)cc2Br)C1=O [ExB28],≥ 10
6,O=C1NC(=O)/C(=C/c2ccnnc2)N1 [Ex15],≥ 10
7,CN1C(=O)S/C(=C\c2cc(OC(F)(F)F)c(Oc3cnc(N)s3)cc2Br)C1=O [ExB33],≥ 10
8,C#Cc1cc(O)c(OC)cc1/C=C1\SC(=O)N(C)C1=O [Ex19],≥ 10
9,COc1cc(/C=C2\SC(=O)N(C)C2=O)c(Br)cc1NS(C)(=O)=O [Ex22],≥ 10
10,CN1C(=O)S/C(=C\c2cc(Oc3ccc(-c4ccccn4)cc3)c(O)cc2Br)C1=O [ExB26],≥ 10
11,COc1cc(/C=C2\SC(=O)N(C)C2=O)c(F)cc1O [Ex29],≥ 10
12,CC(C)c1cc(/C=C2\Sc3ncccc3C2=O)c(Br)cc1O [ExB19],≥ 10
13,O=C1NC(=O)/C(=C/c2ccncc2)S1 [Ex2],≥ 10
14,C/N=C1/S/C(=C\c2cc(OC)c(O)cc2Br)C(=O)N1C [ExB22],≥ 10
15,CN1C(=O)S/C(=C\c2cc(CCc3ccc([S+](C)[O-])cc3)c(O)cc2Br)C1=O (stereo not drawn) [ExB38],≥ 10
16,CC(C)c1cc(/C=C2\SC(=O)N(C)C2=O)c(Br)cc1O [ExB18],≥ 10
17,COc1cc(/C=C2\SC(=O)N(C)C2=O)c(Br)cc1Oc1cnc(NCc2cccnc2)s1 [Ex207],0.5 to 10
18,CN1CCC(COc2cc(/C=C3\SC(=O)N(C)C3=O)c(Br)cc2O)CC1 [Ex126],0.5 to 10
19,COc1cc(/C=C2\SC(=O)N(C)C2=O)c(C(F)(F)F)cc1O [Ex31],0.5 to 10

row,Structure (SMILES),IC50 [µM]
1,CN1C(=O)S/C(=C\c2cc(OCC(F)(F)c3cnc(N)nc3)c(O)c(F)c2Br)C1=O [ExA20],0.5 to 10
2,CC(=O)c1cc(/C=C2\SC(=O)N(C)C2=O)c(Br)cc1O [Ex59],0.5 to 10
3,CN1C(=O)S/C(=C\c2cc(OCc3cnc(-c4ccccc4)nc3)c(O)cc2Br)C1=O [Ex145],0.5 to 10
4,CSc1ccc(CCc2cc(/C=C3\SC(=O)N(C)C3=O)c(Br)cc2O)cc1 [ExB15],0.5 to 10
5,COc1cc(/C=C2\SC(=O)N(C)C2=O)c(Br)cc1NS(=O)(=O)C(F)(F)F [Ex60],0.5 to 10
6,CSc1ncc(COc2cc(/C=C3\SC(=O)N(C)C3=O)c(Br)cc2O)cn1 [Ex144],0.5 to 10
7,CN1C(=O)S/C(=C\c2cc(Oc3cnc(N)s3)c(O)c(F)c2Br)C1=O [ExB30],0.5 to 10
8,CN1C(=O)S/C(=C\c2cc(Oc3ccnc(N)c3)c(O)cc2Br)C1=O [Ex101],0.5 to 10
9,CN1C(=O)S/C(=C\c2cc(Oc3cccc4c3COCC4)c(O)cc2Br)C1=O [ExB27],≥ 10
10,CN1C(=O)S/C(=C\c2cc(OCc3cc[nH]c(=O)c3)c(O)cc2Br)C1=O [Ex134],0.5 to 10
11,CN1C(=O)S/C(=C\c2cc(OCc3cnc(C4CC4)nc3)c(O)cc2Br)C1=O [Ex94],0.5 to 10
12,CN1C(=O)S/C(=C\c2cc(OCc3cnc(N4CCCCC4)nc3)c(O)cc2Br)C1=O [Ex164],≥ 10
13,CNc1ncc(C(C)Oc2cc(/C=C3\SC(=O)N(C)C3=O)c(Br)c(F)c2O)cn1 (stereo not drawn) [Ex111],0.5 to 10
14,CN1C(=O)S/C(=C\c2cc3c(Cc4cnc(N)nc4)c[nH]c3cc2Br)C1=O [Ex208],0.5 to 10
15,CC(Cc1cnc(N)nc1)Oc1cc(/C=C2\SC(=O)N(C)C2=O)c(Br)c(F)c1O (stereo not drawn) [ExB9],0.5 to 10
16,CC(Oc1cc(/C=C2\SC(=O)N(C)C2=O)c(Br)cc1O)c1cncnc1 (stereo not drawn) [Ex103],0.5 to 10
17,CN1C(=O)S/C(=C\c2cc(OCc3cnc(NCc4ccccn4)nc3)c(O)c(F)c2Br)C1=O [Ex188],0.5 to 10
18,O=C1NC(=O)/C(=C/c2ccncc2C(F)(F)F)S1 [Ex4],≥ 10
19,Cc1ncc(C(C)Oc2cc(/C=C3\SC(=O)N(C)C3=O)c(Br)cc2O)cn1 (stereo not drawn) [Ex180],0.5 to 10

# More lines, now with the values ahead:
row,IC50 [µM],Structure (SMILES)
1,≤ 0.5,CN1C(=O)S/C(=C\c2cc(OCc3cnc(N)nc3C(F)(F)F)c(O)cc2Br)C1=O [Ex172]
2,0.5 to 10,CN1C(=O)S/C(=C\c2cc(OCc3ccnc(N)c3)c(O)cc2Br)C1=O [Ex133]
3,≤ 0.5,CN1C(=O)S/C(=C\c2cc(OCc3cnc(NC(=O)c4ccncc4)nc3)c(O)cc2Br)C1=O [Ex161]
4,≤ 0.5,C/C(=C1/SC(=O)NC1=O)c1ccncc1 [Ex12]
5,0.5 to 10,COc1cc(/C=C2\SC(=O)N(C)C2=O)c(Br)cc1OCc1ccncc1 [Ex203]
6,0.5 to 10,CN1C(=O)S/C(=C\c2cc3cc[nH]c3cc2Br)C1=O [Ex66]
7,≤ 0.5,O=C1/C(=C/c2cc3nn[nH]c3cc2Br)Sc2ncccc21 [Ex78]
8,0.5 to 10,CN1CCC(c2ncc(COc3cc(/C=C4\SC(=O)N(C)C4=O)c(Br)cc3O)cn2)CC1 [Ex209]
9,0.5 to 10,COc1cc(/C=C/C=C2\SC(=O)N(C)C2=O)c(Br)cc1O [Ex37]
10,0.5 to 10,COc1cc(/C=C2\Sc3ncccc3C2=O)c(C)cc1O [Ex76]
11,0.5 to 10,COc1cc(/C=c2\sc3n(c2=O)CCN=3)c(Br)cc1O [Ex40]
12,0.5 to 10,CN1C(=O)S/C(=C\c2cc3c(-c4ccc(N)cc4)c[nH]c3cc2Br)C1=O [ExB14]
13,≤ 0.5,CN1C(=O)S/C(=C\c2cc(OCc3cnc(NCc4ccncc4)nc3)c(O)c(F)c2Br)C1=O [Ex190]
14,0.5 to 10,CN1C(=O)S/C(=C\c2cc(OCc3ccc4cccnc4c3)c(O)cc2Br)C1=O [Ex175]
15,0.5 to 10,CN1C(=O)S/C(=C\c2cc(OCc3cnc(-c4cccnc4)nc3)c(O)cc2Br)C1=O [Ex96]
16,0.5 to 10,CN1C(=O)S/C(=C\c2cc(OCc3cncc4ccccc34)c(O)cc2Br)C1=O [Ex176]
17,0.5 to 10,CCc1cc(/C=C2\SC(=O)N(C)C2=O)c(Br)cc1O [Ex58]
18,0.5 to 10,CN1C(=O)S/C(=C\c2cc(OCc3ccnc(N)n3)c(O)cc2Br)C1=O [Ex138]
19,0.5 to 10,COc1cc(/C=C2\SC(=O)N(C)C2=O)c(Br)cc1Oc1cnc(NCc2ccncc2)s1 [Ex206]
20,0.5 to 10,CN1C(=O)S/C(=C\c2cc(OCCc3ccncc3)c(O)cc2Br)C1=O [Ex179]
21,0.5 to 10,COc1cc(/C=c2\sc3n(c2=O)CCCN=3)c(Br)cc1O [Ex42]
22,0.5 to 10,Cc1nc2c(Oc3cc(/C=C4\SC(=O)N(C)C4=O)c(Br)cc3O)cccc2o1 [ExB13]
23,0.5 to 10,COc1cc(/C=C2\SC(=O)N(C)C2=O)c(Br)cc1Oc1ccncc1 [Ex202]
24,0.5 to 10,CN1C(=O)S/C(=C\c2cc(CC(F)(F)F)c(O)cc2Br)C1=O [ExB20]
25,0.5 to 10,COc1cc(/C=C2\Sc3nccnc3C2=O)c(Br)cc1O [Ex50]

row,IC50 [µM],Structure (SMILES)
1,≤ 0.5,CCc1cc(/C=C2\Sc3ncccc3C2=O)c(Br)cc1O [Ex79]
2,≤ 0.5,CN1C(=O)S/C(=C\c2cc(OCc3cnc(Nc4ccncc4)nc3)c(O)cc2Br)C1=O [Ex160]
3,0.5 to 10,Cc1ncc(COc2cc(/C=C3\SC(=O)N(C)C3=O)c(Br)cc2O)cn1 [Ex186]
4,≤ 0.5,Nc1ncc(COc2cc(/C=C3\Sc4ncccc4C3=O)c(Br)cc2O)c(C(F)(F)F)n1 [Ex118]
5,0.5 to 10,CC(Oc1cc(/C=C2\SC(=O)N(C)C2=O)c(Br)cc1O)c1cnc(NCCO)nc1 (stereo not drawn) [Ex181]
6,0.5 to 10,CN1C(=O)S/C(=C\c2cc(OCc3ccc(NC(=O)c4ccccn4)nc3)c(O)cc2Br)C1=O [Ex56]
7,0.5 to 10,CN1C(=O)S/C(=C\c2cc3oc(=O)[nH]c3cc2Br)C1=O [Ex25]
8,0.5 to 10,COc1cc(/C=C2\Sc3ncncc3C2=O)c(Br)cc1O [Ex51]
9,≤ 0.5,O=C1/C(=C/c2cc(OCc3cnc(NCc4ccccn4)nc3)c(O)cc2Br)Sc2ncccc21 [Ex198]
10,0.5 to 10,O=C1NC(=O)/C(=C/c2ccncc2)N1 [Ex14]
11,0.5 to 10,CCC(Oc1cc(/C=C2\SC(=O)N(C)C2=O)c(Br)c(F)c1O)c1cnc(Cl)nc1 (stereo not drawn) [ExB31]
12,≤ 0.5,O=C1/C(=C/c2cc(C(F)(F)F)c(O)cc2Br)Sc2ncccc21 [ExB17]
13,0.5 to 10,Cc1nc(N)ncc1C(C)Oc1cc(/C=C2\SC(=O)N(C)C2=O)c(Br)cc1O (stereo not drawn) [Ex183]
14,0.5 to 10,CN1C(=O)S/C(=C\c2cc(OCc3cnc(NCc4ccccc4)nc3)c(O)cc2Br)C1=O [Ex154]
15,≤ 0.5,O=C1NC(=O)/C(=C2\CCCc3cnccc32)S1 [Ex5]
16,0.5 to 10,CN1C(=O)S/C(=C\c2cc(OCc3cncc(N)c3)c(O)cc2Br)C1=O [Ex132]
17,≤ 0.5,[2H]C(C)(Oc1cc(/C=C2\SC(=O)N(C)C2=O)c(Br)c(F)c1O)c1cnc(N)nc1 (stereo not drawn) [ExB29]
18,≤ 0.5,CC(Oc1cc(/C=C2\SC(=O)N(C)C2=O)c(Br)c(F)c1O)C(O)c1cncnc1N (stereo not drawn) [ExB37]
19,≤ 0.5,COc1cc(/C=C2\Sc3cnccc3C2=O)c(Br)cc1O [Ex49]
20,≤ 0.5,CN1C(=O)S/C(=C\c2cc(C(F)(F)F)c(O)cc2Br)C1=O [ExB16]
21,≤ 0.5,CC(Oc1cc(/C=C2\Sc3ncccc3C2=O)c(Br)cc1O)c1cnc(Cl)nc1 (stereo not drawn) [Ex121]
22,≤ 0.5,Nc1ncc(/C=C/c2cc(/C=C3\Sc4ncccc4C3=O)c(Br)cc2O)cn1 [ExB42]
23,≤ 0.5,CN1C(=O)S/C(=C\c2cc(OCc3cnc(NC(=O)c4ccncc4)nc3)c(O)c(F)c2Br)C1=O [Ex191]
24,≤ 0.5,COc1cc(/C=C2\Sc3ncc(F)cc3C2=O)c(Br)cc1O [Ex48]
